# Tested on: unilaterally 6-OHDA lesioned rats
# Assay: Rotation test in unilaterally 6-OHDA lesioned rats (model of Parkinsonism)
# Assay type: in vivo
# Conditions: apomorphine 1 mg/kg IP, 6-OHDA lesioned rats
# Protocol: Evaluation of compound 30 in rodent model of Parkinsonism. Male Sprague Dawley rats (150-200 g) were housed in air-conditioned rooms (12h dark/light cycle) at 20°C and a humidity of 53%. Experiments were performed in agreement with the European Communities Council Directive of 24 November 1986 (86/609/EEC) on the ethical use of animals and were approved by the local ethical committee (Stockholm North Ethical Committee, N105/16). Rats were anesthetized with ketamine (100 mg/kg, IP; Intervet)/xylazine (5 mg/kg, IP; Bayer, Kiel, Germany), pretreated with desipramine (25 mg/kg, IP; Sigma, St Louis, MO, USA)/pargyline (5 mg/kg, IP; Sigma), placed in a stereotaxi c instrument and injected with 6-OHDA (2.5 µl of a 5mg/ml solution; Sigma) into the median forebrain bundle (MFB) of the right hemisphere (AP -2.8 mm, ML -2.0 mm and V -9.0 mm). Two weeks after the unilateral 6-OHDA lesion, rats were injected with apomorphine (1 mg/kg, IP; Sigma) and their contralateral rotations were measured to determine the degree of nigrostriatal denervation. Four weeks after surgery, rats that were divided into two group according to the number of apomorphine-induced rotations. The rats were treated either with DMSO(17%)/saline (n=6) or compound 30 (n=7, 24 mg/kg, IP) dissolved in DMSO(17%)/saline. The number of rotations was calculated automatically with Noldus EthoVision XT11. 5 Software for 30 min following the drug administration. The two […]
# groups were then compared by using a Mann-Whitney test. A second set of independent experiments using a new set of rats were carried out using the same protocol to assess the involvement of the D2R in the observed effect. In this case, rats were divided into four groups according to the number of apomorphine-induced rotations. The rats were treated with either DMSO(17%)/saline (n=6), raclopride (n=7, 2mg/kg, IP) dissolved in DMSO(17%)/saline, compound 30 (n=7, 24 mg/kg, IP) dissolved in DMSO(17%)/saline or the combination of raclopride (30 min pretreatment) and compound 30 (n=7). The rotation test was then performed for 30 min. […]
smiles,measurement,value
"CN1CCc2cccc3c2[C@H]1Cc1ccc(O)c(O)c1-3 [apomorphine, reference compound]",rotational behaviour induced by control D2R agonist,contralateral rotational behaviour
